Measured values reported in US9044142B2, “Surgical optical systems for detecting brain tumors” (Carl Zeiss Meditec AG, priority 2010, dated 2015).

Key:
GL261-luc glioma cells [1] = assay: Intraoperative NIR fluorescence macroscopy of ICG in GL261-luc glioma mouse model; assay type: in vivo
From the text: (§1) The GL261 cell line was obtained from the Division of Cancer Treatment and Diagnosis (DCTD) of the National Cancer Institute (NCl), Frederick, Md. […] The morphological, biochemical and growth characteristics of the GL261 mouse brain tumor model have been described elsewhere (see, e.g., M. Candolfi et al., J Neurooncol 85, 133 (November, 2007) and T. Szatmari et al., Cancer Sci 97, 546 (June, 2006)). To facilitate a quantitative measurement of the tumor growth rate, GL261 cells were made bioluminescent using the Lentiphos™ HT System (Clontech Laboratories, Inc., Mountain View, Calif.) with the Lenti-X™ HT Packaging Mix (Clontech Laboratories, Inc.) and the FUW-GL plasmid (a generous gift from the laboratory of J. B. Rubin, MD, PhD). The resulting GL261-luc cells were grown in Dulbecco's modified eagle's medium (DMEM, Invitrogen, Carlsbad, Calif.) supplemented with 10% tetracycline-free fetal calf serum (Clontech Laboratories, Inc) at 37° C. with 5% CO2. Cultured cells were harvested by trypsinization, washed once in phosphate-buffered saline (Invitrogen, Carlsbad, Calif.), and resuspended in DMEM without serum at a concentration of 1×10^7 cells/mL.
Animals were anesthetized by intraperitoneal injection of a mixture of 10 mg/kg xylazine and 80 mg/kg ketamine (Wyeth, Madison, N.J.). A 10-mm incision was made starting between the animal's eyes, exposing the bregma. […]
This study was conducted in two main phases. The purpose of the first phase was to validate the use of ICG fluorescence in both intraoperative NIR macroscopic and miniaturized confocal endomicroscopic techniques for the identification of brain tumors in the mouse model. […] Several intraoperative fluorescence macroscopic video loops, confocal images, and histological specimens were collected and analyzed from each mouse. […] Two cohorts of animals were used in the second phase: (1) six mice were used for intraoperative fluorescence macroscopy and (2) six mice were used for intraoperative confocal endomicroscopy. […]

GL261-luc glioma cells [2] = assay: Intraoperative confocal endomicroscopy of ICG distribution in GL261-luc glioma mouse model; assay type: in vivo; conditions: 0.4 mg/kg intravenously, mice
Description: Thirty mice implanted with glioblastoma cells underwent craniectomies for exposure of tumors 14 days implantation. Tumors were clearly visible macroscopically and extended from cortical surface to deep basal brain structures. ICG was then administered using 0.4 mg/kg, equivalent to a standard single dose for humans (see, e.g., I. Roberts et al., Lancet 342, (1993)). […] Other regions presented a complex mixture of these patterns, with mostly normal-appearing brain punctuated by large pleomorphic cells consistent with an infiltrative margin or satellite tumor cell clusters surrounded by brain tissue. Importantly, patterns consistent with tumor morphology were also seen in brain tissue neighboring the tumor that appeared macroscopically normal as viewed via the surgical microscope. Critically, individual tumor cells within brain tissue could be identified within 475×475 μm field of view and a definitive tumor border delimited (FIGS. 2A-2D).
as §1
Animals were anesthetized by intraperitoneal injection of a mixture of 10 mg/kg xylazine and 80 mg/kg ketamine (Wyeth, Madison, N.J.). A 10-mm incision was made starting between the animal's eyes, exposing the bregma. A bur hole was made 0.1 mm posterior to the bregma and 2.3 mm right of the midline using a small animal stereotactic headframe (Model 900, David Kopf Instruments, Tujunga, Calif.). […]
This study was conducted in two main phases. The purpose of the first phase was to validate the use of ICG fluorescence in both intraoperative NIR macroscopic and miniaturized confocal endomicroscopic techniques for the identification of brain tumors in the mouse model. […]

[3] = cited from earlier work
[4] = humans; cited from earlier work

## CC1(C)C(/C=C/C=C/C=C/C=C2\N(CCCCS(=O)(=O)O)c3ccc4ccccc4c3C2(C)C)=[N+](CCCCS(=O)(=O)[O-])c2ccc3ccccc3c21 [ICG, Indocyanine green]
GL261-luc glioma cells [1]; 15 minutes after injection versus one minute
  intensity of macroscopic fluorescence in the central region of tumor: increased
GL261-luc glioma cells [1]; after ICG injection, tumor 14 days after implantation, mice
  macroscopic tumor visibility with NIR light: macroscopically visible
GL261-luc glioma cells [1]; immediately after intravenous injection
  macroscopic ICG fluorescence in vessels: could be observed in major vessels
GL261-luc glioma cells [2]
  ICG distribution in normal-appearing brain distant from the tumor (confocal endomicroscopy): predominantly intravascular ICG distribution
  ICG distribution within obvious tumor tissue (confocal endomicroscopy): extravascular ICG concentrated in clusters of cellular structures
GL261-luc glioma cells [2]; fifteen minutes after ICG injection
  ICG fluorescence of tumor cells (confocal endomicroscopy): entire tumor mass was saturated with ICG
GL261-luc glioma cells [2]; immediately after ICG injection
  ICG fluorescence of tumor cells (confocal endomicroscopy): fluorescence was seen only in a few clusters of tumor cells
[3]; after 10 minutes
  fraction of originally injected volume detectable in the blood: only a small fraction
[3]; after intravenous injection
  binding to globulins, preferentially to α1-lipoproteins: almost completely
[3]; in vivo
  main source of clearance: hepatic elimination
  metabolism in the body: not metabolized
[4]
  toxicity: one of the least toxic substances ever administered to humans
